Laboratory results taken from patent publication US11485725B2, “Derivatives of piperlongumine and uses thereof” (Auransa Inc., priority 2017, dated 2022).
pIC50: −log10 of the molar value. Like-named read-outs stand apart in the source and are kept apart here.

Tests used:
DU4475 = assay: In vitro cell viability assay (CellTiter-Glo, ATP levels), triple negative breast cancer cells; assay type: cell-based; settings: Homo sapiens, DU-4475, 168 h
Description: (§1) In Vitro Cell Viability Assay
(§2) The present disclosure provides a method for inhibiting cell viability, as measured by ATP levels. The method for inhibiting cell viability is drawn to contacting various cancer cells with the compounds described herein at various concentrations. The cancer cell lines were maintained in culture conditions at 37° C. in an atmosphere of 5% CO2 in air. The cells growing in an exponential growth phase were harvested and counted for plating. Compounds were incubated in two cancer cell types representing multiple myeloma (MOLP-8) and triple negative breast cancer (DU4475). Cells were plated at an optimized cell numbers per well in 96-well plates and allowed to attach to the plates overnight at approximately 80% confluency.
(§3) After addition of compounds, plates were incubated for 7-day. At the end of incubation period on day 8, media was removed and replaced with a solution of CellTiter-Glo™ reagent (Promega®) according to protocol. Luminescence was read using an EnVision® multi-label plate reader (Perkin-Elmer®), and signal intensity was calculated relative to positive and negative control wells. Cisplatin was included as the positive control. A dose-response calculation was performed in a non-linear regression fit and by using the Hill equation to calculate a concentration-response curve and 50% inhibitory concentration (IC50) values for each compound.
(§4) The average IC50 values of compounds 1-15 in multiple myeloma (MOLP-8) and triple negative breast cancer (DU4475) cells are shown in Table 1.

[1] = test system: HCT116 (colorectal cancer) cells; assay: Resazurin-based cell viability assay using colorectal cancer cells; settings: Homo sapiens, HCT-116, 72 hr incubation
Description: Determination of Potency of Compounds in Cell Viability Assay Using Colorectal Cancer Cells
The blue dye resazurin-based assay was performed to determine cell viability and used according to manufacture protocol (Sigma®). HCT116 (colorectal cancer) cells were seeded in the DMEM medium (10% FBS serum). Approximately 1,500 cells were plated per well in 96 well plates. Cells were allowed to grow at 37° C. for 24 hr in 5% CO2 environment in a humidified incubator. Serially diluted compounds (100 μL) were added to the culture plate after 24 hr. After addition of compounds, plates were incubated for 72 hr. Experiment was terminated at the designated incubation time by replacing the medium with 100 μL of 1 mM of resazurin (Sigma®) prepared in culture medium (DMEM) and were further incubated in culture conditions for 4-6 hours. Fluorescence was recorded using a multimodal plate reader (Biotek Synergy Neo®) at an excitation wavelength of 535 nm and emission wavelength of 590 nm to obtain relative fluorescence units. Data analysis was done by subtracting the background fluorescence (medium blank) value from each reading and then normalizing with the vehicle control (DMSO treated cells) to obtain percent survival/proliferation. IC50 was calculated from percent survival values using GraphPad Prism® (see Table 1).

MOLP-8 = assay: In vitro cell viability assay (CellTiter-Glo, ATP levels), multiple myeloma cells; assay type: cell-based; settings: Homo sapiens, MOLP-8, 168 h
Description: as §1, §2, §3, §4

[2] = 7-day incubation, CellTiter-Glo, average values, read-out: DU4475 IC50
[3] = 7-day incubation, CellTiter-Glo, average values, read-out: MOLP-8 IC50

O=C1C=CCCN1C(=O)/C=C/C1CCCCC1 [Compound 2, (E)-1-(3-cyclohexylacryloyl)-5,6-dihydropyridin-2(1H)-one]
pIC50 (DU4475; [2]): 6.02
pIC50 [1]: 5.59
pIC50 (MOLP-8; [3]): 5.98

O=C1C=CCCCN1C(=O)/C=C/c1cnc2ccccc2c1 [Compound 3, (E)-1-(3-(quinolin-3-yl)acryloyl)-1,5,6,7-tetrahydro-2H-azepin-2-one]
pIC50 (DU4475; [2]): 6.12
pIC50 [1]: 5.77
pIC50 (MOLP-8; [3]): 6.44

O=C1C=CCCCN1C(=O)/C=C/c1cccnc1 [Compound 4, (E)-1-(3-(pyridin-3-yl)acryloyl)-1,5,6,7-tetrahydro-2H-azepin-2-one]
pIC50 (DU4475; [2]): 6.23
pIC50 [1]: 5.72
pIC50 (MOLP-8; [3]): 6.28

O=C1C=CCCCN1C(=O)/C=C/c1ccncc1 [Compound 5, (E)-1-(3-(pyridin-4-yl)acryloyl)-1,5,6,7-tetrahydro-2H-azepin-2-one]
pIC50 (DU4475; [2]): 6.24
pIC50 [1]: 5.70
pIC50 (MOLP-8; [3]): 6.31

O=C1C=CCCCN1C(=O)/C=C/c1cnccn1 [Compound 6, (E)-1-(3-(pyrazin-2-yl)acryloyl)-1,5,6,7-tetrahydro-2H-azepin-2-one]
pIC50 (DU4475; [2]): 6.25
pIC50 [1]: 5.62
pIC50 (MOLP-8; [3]): 6.36

O=C1C=CCCN1C(=O)/C=C/c1ncccn1 [Compound 7, (E)-1-(3-(pyrimidin-2-yl)acryloyl)-5,6-dihydropyridin-2(1H)-one]
pIC50 (DU4475; [2]): 6.31
pIC50 [1]: 5.82
pIC50 (MOLP-8; [3]): 6.24

O=C1C=CCCCN1C(=O)/C=C/c1ccccn1 [Compound 8, (E)-1-(3-(pyridin-2-yl)acryloyl)-1,5,6,7-tetrahydro-2H-azepin-2-one]
pIC50 (DU4475; [2]): 6.30
pIC50 [1]: 5.82
pIC50 (MOLP-8; [3]): 6.39

CC(=O)N1CCC(/C=C/C(=O)N2CCC=CC2=O)CC1 [Compound 9, (E)-1-(3-(1-acetylpiperidin-4-yl)acryloyl)-5,6-dihydropyridin-2(1H)-one]
pIC50 (DU4475; [2]): 6.04
pIC50 [1]: 5.24
pIC50 (MOLP-8; [3]): 6.01

O=C1C=CCCN1C(=O)C=C1c2ccccc2-c2ccccc21 [Compound 10, 1-(2-(9H-fluoren-9-ylidene)acetyl)-5,6-dihydropyridin-2(1H)-one]
pIC50 (DU4475; [2]): 6.02
pIC50 [1]: 5.72
pIC50 (MOLP-8; [3]): 5.67

O=C1C=CCCN1S(=O)(=O)/C=C/c1cccnc1 [Compound 11, (E)-1-((2-(pyridin-3-yl)vinyl)sulfonyl)-5,6-dihydropyridin-2(1H)-one]
pIC50 (DU4475; [2]): 6.24
pIC50 [1]: 5.72
pIC50 (MOLP-8; [3]): 6.30

O=C1C=CCCCN1C(=O)/C=C/c1cncc2ccccc12 [Compound 12, (E)-1-(3-(isoquinolin-4-yl)acryloyl)-1,5,6,7-tetrahydro-2H-azepin-2-one]
pIC50 (DU4475; [2]): 6.22
pIC50 [1]: 6.02
pIC50 (MOLP-8; [3]): 6.05

O=C1C=CCCCN1C(=O)/C=C/c1ncccn1 [Compound 13, (E)-1-(3-(pyrimidin-2-yl)acryloyl)-1,5,6,7-tetrahydro-2H-azepin-2-one]
pIC50 (DU4475; [2]): 6.17
pIC50 [1]: 5.89
pIC50 (MOLP-8; [3]): 6.29

O=C1C=CCCCN1S(=O)(=O)/C=C/c1ccccc1 [Compound 14, (E)-1-(styrylsulfonyl)-1,5,6,7-tetrahydro-2H-azepin-2-one]
pIC50 (DU4475; [2]): 5.52
pIC50 [1]: 5.15
pIC50 (MOLP-8; [3]): 5.45

O=C1C=CCCCN1C(=O)/C=C/c1ccc2ccccc2n1 [Compound 15, (E)-1-(3-(quinolin-2-yl)acryloyl)-1,5,6,7-tetrahydro-2H-azepin-2-one]
pIC50 (DU4475; [2]): 6.30
pIC50 [1]: 6.06
pIC50 (MOLP-8; [3]): 6.30

O=C1C=C(Cl)CCN1C(=O)/C=C/c1ncccn1 [Compound 36, (E)-4-chloro-1-(3-(pyrimidin-2-yl)acryloyl)-5,6-dihydropyridin-2(1H)-one]
pIC50 [1]: 5.53

O=C1C=CCCN1C(=O)/C=C/c1ccnnc1 [Compound 39, (E)-1-(3-(pyridazin-4-yl)acryloyl)-5,6-dihydropyridin-2(1H)-one]
pIC50 (DU4475; [2]): 6.19
pIC50 (MOLP-8; [3]): 6.52

CN1CCC(/C=C/C(=O)N2CCC=CC2=O)CC1 [Compound 41, (E)-1-(3-(1-methylpiperidin-4-yl)acryloyl)-5,6-dihydropyridin-2(1H)-one]
pIC50 [1]: 5.91

C/C(=C\c1ncccn1)C(=O)N1CCC=CC1=O [Compound 42, (E)-1-(2-methyl-3-(pyrimidin-2-yl)acryloyl)-5,6-dihydropyridin-2(1H)-one]
pIC50 [1]: 5.66

C/C(=C\c1ncccn1)C(=O)N1CCC=C(Cl)C1=O [Compound 46, (E)-3-chloro-1-(2-methyl-3-(pyrimidin-2-yl)acryloyl)-5,6-dihydropyridin-2(1H)-one]
pIC50 [1]: 6.01

CS(=O)(=O)N1CCC(/C=C/C(=O)N2CCC=CC2=O)CC1 [Compound 47, 1-{(2E)-3-[1-(methylsulfonyl)piperidin-4-yl]prop-2-enoyl}-5,6-dihydropyridin-2(1H)-one]
pIC50 [1]: 5.50

O=C1C=CCCN1C(=O)/C=C/c1ncc2ccccc2n1 [Compound 48, (E)-1-(3-(quinazolin-2-yl)acryloyl)-5,6-dihydropyridin-2(1H)-one]
pIC50 (DU4475; [2]): 6.46
pIC50 (MOLP-8; [3]): 6.54

O=C(c1ccc(F)cc1)N1CCC(/C=C/C(=O)N2CCC=CC2=O)CC1 [Compound 50, (E)-1-(3-(1-(4-fluorobenzoyl)piperidin-4-yl)acryloyl)-5,6-dihydropyridin-2(1H)-one]
pIC50 (DU4475; [2]): 6.30
pIC50 (MOLP-8; [3]): 6.39

O=C1C=CCCN1C(=O)/C=C/C1CCN(S(=O)(=O)c2ccc(F)cc2)CC1 [Compound 51, (E)-1-(3-(1-(4-fluorophenylsulfonyl)piperidin-4-yl)acryloyl)-5,6-dihydropyridin-2(1H)-one]
pIC50 (DU4475; [2]): 6.24
pIC50 (MOLP-8; [3]): 6.25

Cn1cc(/C=C/C(=O)N2CCC=CC2=O)c2ccccc21 [Compound 52, 1-[(2E)-3-(1-methyl-1H-indol-3-yl)prop-2-enoyl]-5,6-dihydropyridin-2(1H)-one]
pIC50 (DU4475; [2]): 5.82
pIC50 (MOLP-8; [3]): 6.00

O=C(c1ccccc1)N1CCC(/C=C/C(=O)N2CCC=CC2=O)CC1 [Compound 54, 1-[(2E)-3-(1-benzoylpiperidin-4-yl)prop-2-enoyl]-5,6-dihydropyridin-2(1H)-one]
pIC50 [1]: 5.85

CC(C)(O)CN1CCC(/C=C/C(=O)N2CCC=CC2=O)CC1 [Compound 59, 1-{(2E)-3-[1-(2-hydroxy-2-methylpropyl)piperidin-4-yl]prop-2-enoyl}-5,6-dihydropyridin-2(1H)-one]
pIC50 (DU4475; [2]): 6.08
pIC50 (MOLP-8; [3]): 6.41

O=C1C=CCCN1C(=O)/C=C/C1CCN(Cc2ccc(F)cc2)CC1 [Compound 60, 1-{3-[1-(4-fluorobenzyl)piperidin-4-yl]prop-2-enoyl}-5,6-dihydropyridin-2(1H)-one]
pIC50 (DU4475; [2]): 6.23
pIC50 (MOLP-8; [3]): 6.47

O=C1C=CCCN1C(=O)/C=C/C1CCN(c2ccc(F)cc2)CC1 [Compound 61, 1-{3-[1-(4-fluorophenyl)piperidin-4-yl]prop-2-enoyl}-5,6-dihydropyridin-2(1H)-one]
pIC50 (DU4475; [2]): 6.02
pIC50 (MOLP-8; [3]): 6.17

CC1(/C=C/C(=O)N2CCC=CC2=O)CCN(C(=O)OC(C)(C)C)CC1 [Compound 64, tert-butyl (E)-4-methyl-4-(3-oxo-3-(6-oxo-3,6-dihydropyridin-1(2H)-yl)prop-1-en-1-yl)piperidine-1-carboxylate]
pIC50 [1]: 5.36

O=C1C=CCCN1C(=O)/C=C/c1cnc2c(n1)OCCO2 [Compound 65, (E)-1-(3-(2,3-dihydro-[1,4]dioxino[2,3-b]pyrazin-6-yl)acryloyl)-5,6-dihydropyridin-2(1H)-one]
pIC50 [1]: 5.65

CC1=CCCN(C(=O)/C=C/c2cnn(C)c2)C1=O [Compound 93, (E)-3-methyl-1-(3-(1-methyl-1H-pyrazol-4-yl)acryloyl)-5,6-dihydropyridin-2(1H)-one]
pIC50 [1]: 4.05

COc1cc(/C=C/C(=O)N2C(=O)C=CCC2(C)C)cc(OC)c1OC [Compound 94, (E)-6,6-dimethyl-1-(3-(3,4,5-trimethoxyphenyl)acryloyl)-5,6-dihydropyridin-2(1H)-one]
pIC50 [1]: 5.50

COc1cc(/C=C/C(=O)N2CCC=CC2=O)cc(OC)c1OC [Piperlongumine, 1-[(E)-3-(3,4,5-trimethoxyphenyl)prop-2-enoyl]-2,3-dihydropyridin-6-one]
pIC50 (DU4475; read-out: average IC50 in triple negative breast cancer (DU4475) cells): ~5.91
pIC50 (MOLP-8; read-out: average IC50 in multiple myeloma (MOLP-8) cells): ~6.00
